Measured values from ChEMBL document CHEMBL5625206, “Design, synthesis, and evaluation of novel pleuromutilin aryl acrylate derivatives as promising broad-spectrum antibiotics especially for combatting multi-drug resistant gram-negative bacteria” (Eur J Med Chem, 2023).
Values after ≈ are worked out from the molar mass of the structure shown. Active and inactive are the calls of the source. The calls are words filed in the database; no cut-off is given here.

Key:
[1] = tested on: Klebsiella pneumoniae; test: Antibacterial activity against multidrug-resistant Klebsiella pneumoniae 893 clinical isolate assessed as bacterial growth inhibition incubated for 24 hrs by CLSI based broth microdilution method; type: functional
[2] = tested on: Escherichia coli; test: Bactericidal activity against Escherichia coli ATCC 25922 assessed as reduction in colony count at 2 times MIC incubated for 24 hrs by time kill assay relative to control; type: functional
[3] = tested on: Staphylococcus aureus; test: Bactericidal activity against methicillin-resistant Staphylococcus aureus ATCC 33591 incubated for 24 hrs by time kill assay; type: functional, organism-based
[4] = tested on: Mycoplasmoides gallisepticum; test: Anti-mycoplasma activity against Mycoplasma gallisepticum MG-R-NCTC10115 assessed as bacterial growth inhibition incubated for 7 days; type: functional; conditions: MG-R-NCTC10115, 168 h, time 7 day
[5] = Cytotoxicity against human HepG2 cells incubated for 24 hrs by CCK8 assay; type: toxicity, cell-based
[6] = tested on: Escherichia coli; test: Induction of cell damage in Escherichia coli ATCC 25922 assessed as decrease in intracellular ATP concentration at 2 times MIC incubated for 30 mins by fluorescence based analysis relative to control; type: functional; parameters: scale not given: the % may be the effect or the level left; conditions: 0.5 h
[7] = tested on: Staphylococcus aureus; test: Depolarization of cell membrane in methicillin-resistant Staphylococcus aureus ATCC 33591 by DiBAC4(3) probe based analysis; type: functional, organism-based
[8] = tested on: Staphylococcus aureus; test: Disruption of cell membrane integrity in methicillin-resistant Staphylococcus aureus ATCC 33591 assessed as increase in red fluorescence at 1 to 4 times MIC incubated for 2 hrs by MycoLight green JJ98/PI staining based analysis; type: functional, organism-based
[9] = tested on: Staphylococcus aureus; test: Disruption of cell membrane integrity in methicillin-resistant Staphylococcus aureus ATCC 33591 at 4 times MIC incubated for 4 hrs by FESEM analysis; type: functional, organism-based
[10] = tested on: Escherichia coli; test: Disruption of cell membrane integrity in Escherichia coli ATCC 25922 assessed as appearance of pores on cell membrane at 4 times MIC incubated for 4 hrs by FESEM analysis; type: functional, organism-based
[11] = Toxicity in neutropenic Kunming mouse model infected with methicillin-resistant Staphylococcus aureus ATCC 33591 assessed as survival rate at 10 mg/kg, ip measured after 7 days relative to control; type: organism-based; conditions: in vivo, 168 h, time 7 day
[12] = tested on: Staphylococcus aureus; test: Antibacterial activity against methicillin-resistant Staphylococcus aureus ATCC 33591 infected in neutropenic Kunming mouse model assessed as reduction in infection-induced lung damage at 20 mg/kg, ip measured after 7 days; type: functional, organism-based; conditions: time 7.0 day
[13] = tested on: Staphylococcus aureus; test: Antibacterial activity against methicillin-resistant Staphylococcus aureus ATCC 33591 infected in neutropenic Kunming mouse model assessed as reduction in infection-induced kidney damage at 20 mg/kg, ip measured after 7 days; type: functional, organism-based; conditions: time 7.0 day
[14] = tested on: Staphylococcus aureus; test: Antibacterial activity against methicillin-resistant Staphylococcus aureus ATCC 33591 infected in neutropenic Kunming mouse model assessed as reduction in infection-induced inflammatory cell infiltration in kidney at 20 mg/kg, ip measured after 7 days; type: functional, organism-based; conditions: time 7.0 day
[15] = MRT in fasted Sprague-Dawley rat at 1 mg/kg, iv by LC-MS/MS analysis; type: ADME, organism-based; conditions: in vivo
[16] = Toxicity in fasted Sprague-Dawley rat assessed as mortality rate at 331 mg/kg, IG measured for 14 days; type: organism-based; conditions: in vivo, po, time 14 day
[17] = Toxicity in fasted male Sprague-Dawley rat assessed as body weight at 148 mg/kg, IG measured on same day (reference value: 212.7 +/- 13.2 g); type: organism-based; conditions: in vivo, po
[18] = Toxicity in fasted female Sprague-Dawley rat assessed as body weight at 500 mg/kg, IG measured on same day (reference value: 165.2 +/- 8.1 g); type: organism-based; conditions: in vivo, po
[19] = Toxicity in fasted male Sprague-Dawley rat assessed as body weight at 148 mg/kg, IG measured after 7 days (reference value: 260.5 +/- 12.7 g); type: organism-based; conditions: in vivo, po, 168 h, time 7 day
[20] = Toxicity in fasted male Sprague-Dawley rat assessed as body weight at 100 mg/kg, IG measured after 14 days (reference value: 311.2 +/- 13.6 g); type: organism-based; conditions: in vivo, po, 336 h, time 14 day
[21] = Toxicity in fasted female Sprague-Dawley rat assessed as animal growth rate at 148 mg/kg, IG measured for 14 days (reference value: 29.85 +/- 4.97 g); type: organism-based; conditions: in vivo, po, 336 h, time 14 day
[22] = Toxicity in fasted male Sprague-Dawley rat assessed as relative liver weight ratio at 100 mg/kg, IG measured for 14 days (reference value: 3.616 +/- 0.286); type: organism-based; conditions: in vivo, po, 336 h, time 14 day
[23] = Toxicity in fasted female Sprague-Dawley rat assessed as relative liver weight ratio at 224 mg/kg, IG measured for 14 days (reference value: 3.199 +/- 0.062); type: organism-based; conditions: in vivo, po, 336 h, time 14 day
[24] = Toxicity in fasted female Sprague-Dawley rat assessed as relative kidney weight ratio at 331 mg/kg, IG measured for 14 days (reference value: 0.802 +/- 0.031); type: organism-based; conditions: in vivo, po, 336 h, time 14 day
[25] = Toxicity in fasted male Sprague-Dawley rat assessed as relative heart weight ratio at 500 mg/kg, IG measured for 14 days (reference value: 0.396 +/- 0.043); type: organism-based; conditions: in vivo, po, 336 h, time 14 day
[26] = Toxicity in fasted female Sprague-Dawley rat assessed as relative lung weight ratio at 148 mg/kg, IG measured for 14 days (reference value: 0.534 +/- 0025); type: organism-based; conditions: in vivo, po, 336 h, time 14 day
[27] = Toxicity in fasted female Sprague-Dawley rat assessed as relative lung weight ratio at 224 mg/kg, IG measured for 14 days (reference value: 0.534 +/- 0025); type: organism-based; conditions: in vivo, po, 336 h, time 14 day
[28] = Toxicity in fasted male Sprague-Dawley rat assessed as relative lung weight ratio at 331 mg/kg, IG measured for 14 days (reference value: 0.437 +/- 0.064); type: organism-based; conditions: in vivo, po, 336 h, time 14 day
[29] = Toxicity in fasted female Sprague-Dawley rat assessed as relative lung weight ratio at 500 mg/kg, IG measured for 14 days (reference value: 0.534 +/- 0025); type: organism-based; conditions: in vivo, po, 336 h, time 14 day
[30] = Toxicity in fasted male Sprague-Dawley rat assessed as relative spleen weight ratio at 148 mg/kg, IG measured for 14 days (reference value: 0.246 +/- 0.037); type: organism-based; conditions: in vivo, po, 336 h, time 14 day
[31] = Toxicity in fasted male Sprague-Dawley rat assessed as relative spleen weight ratio at 224 mg/kg, IG measured for 14 days (reference value: 0.246 +/- 0.037); type: organism-based; conditions: in vivo, po, 336 h, time 14 day
[32] = Toxicity in fasted male Sprague-Dawley rat assessed as relative spleen weight ratio at 331 mg/kg, IG measured for 14 days (reference value: 0.246 +/- 0.037); type: organism-based; conditions: in vivo, po, 336 h, time 14 day
[33] = Toxicity in fasted male Sprague-Dawley rat assessed as relative testis weight ratio at 100 mg/kg, IG measured for 14 days (reference value: 0.993 +/- 0.052); type: organism-based; conditions: in vivo, po, 336 h, time 14 day
[34] = Toxicity in fasted male Sprague-Dawley rat assessed as relative testis weight ratio at 224 mg/kg, IG measured for 14 days (reference value: 0.993 +/- 0.052); type: organism-based; conditions: in vivo, po, 336 h, time 14 day
[35] = Toxicity in fasted female Sprague-Dawley rat assessed as relative ovary weight ratio at 224 mg/kg, IG measured for 14 days (reference value: 0.061 +/- 0.010); type: organism-based; conditions: in vivo, po, 336 h, time 14 day
[36] = Toxicity in fasted female Sprague-Dawley rat assessed as relative ovary weight ratio at 500 mg/kg, IG measured for 14 days (reference value: 0.061 +/- 0.010); type: organism-based; conditions: in vivo, po, 336 h, time 14 day

C=C[C@]1(C)C[C@@H](OC(=O)COC(=O)/C=C/c2ccc(N(C)C)cc2)[C@]2(C)[C@H](C)CC[C@]3(CCC(=O)[C@H]32)[C@@H](C)[C@@H]1O
MIC [1]: 64 µg/mL (≈ 116 µM)
Activity [2]: 6.14 log10CFU/ml
Activity [3]: Dose-Dependent Effect
MIC [4]: 0.004 µg/mL (≈ 0.00725 µM)
CC50 at 24 h [5]: > 200 µM
Activity [6]: 67.87%
Activity [7]: Dose-Dependent Effect
Activity [8]: Active
Activity [9]: Active
Activity [10]: Active
Survival [11]: 70%
Activity [12]: Active
Activity [13]: Active
Activity [14]: Active
MRT [15]: 42.6 min
mortality at 336 h [16]: 0%
Activity [17]: 208.6 g
Activity [18]: 159.5 g
Activity [19]: 256.8 g
Activity [20]: 314.5 g
Activity [21]: 31.79%
Ratio [22]: 3.623
Ratio [23]: 3.197
Ratio [24]: 0.832
Ratio [25]: 0.376
Ratio [26]: 0.494
Ratio [27]: 0.531
Ratio [28]: 0.397
Ratio [29]: 0.503
Ratio [30]: 0.227
Ratio [31]: 0.229
Ratio [32]: 0.235
Ratio [33]: 1.048
Ratio [34]: 0.981
Ratio [35]: 0.073
Ratio [36]: 0.071
